In data set [1] the test system is Botryotinia fuckeliana (Botrvtis cinerea). The experiment in a line: Botryotinia fuckeliana (Botrvtis cinerea)/Liquid Culture (Gray Mould). The following applies: Botrytis cinerea; 200 ppm in the formulation; liquid culture, growth inhibition photometrically 3-4 days after application; compared to untreated control; read-out: disease control. The data set is classed as cell-based. How it is done:
Botryotinia fuckeliana (Botrvtis cinerea)/Liquid Culture (Gray Mould) Conidia of the fungus from cryogenic storage are directly mixed into nutrient broth (Vogels broth). After placing a (DMSO) solution of test compound into a microtiter plate (96-well format), the nutrient broth containing the fungal spores is added. The test plates are incubated at 24° C. and the inhibition of growth is determined photometrically 3-4 days after application.

In data set [2] the test system is Mycosphaerella graminicola (Septoria tritici). The experiment in a line: Mycosphaerella graminicola (Septoria tritici)/Liquid Culture (Septoria Blotch). The data set is classed as cell-based. The following applies: Zymoseptoria tritici; 200 ppm in the formulation; liquid culture, growth inhibition photometrically 4 to 5 days after application; compared to untreated control; read-out: disease control. How it is done: Mycosphaerella graminicola (Septoria tritici)/Liquid Culture (Septoria Blotch) Conidia of the fungus from cryogenic storage are directly mixed into nutrient broth (PDB potato dextrose broth). After placing a (DMSO) solution of test compound into a microtiter plate (96-well format), the nutrient broth containing the fungal spores is added. The test plates are incubated at 24° C. and the inhibition of growth is determined photometrically 4 to 5 days after application.

Data set [3] concerns Glomerella lagenarium (Colletotrichum lagenarium). The experiment in a line: Glomerella lagenarium (Colletotrichum lagenarium)/Liquid Culture (Anthracnose). The following applies: Colletotrichum orbiculare; 200 ppm in the formulation; liquid culture, growth inhibition photometrically 3 to 4 days after application; compared to untreated control; read-out: disease control. The data set is classed as cell-based. The procedure: Glomerella lagenarium (Colletotrichum lagenarium)/Liquid Culture (Anthracnose) Conidia of the fungus from cryogenic storage are directly mixed into nutrient broth (PDB potato dextrose broth). After placing a (DMSO) solution of test compound into a microtiter plate (96-well format), the nutrient broth containing the fungal spores is added. The test plates are incubated at 24° C. and the inhibition of growth is measured photometrically 3 to 4 days after application.

The subject of data set [4] is Puccinia recondita f. sp. tritici. The experiment in a line: Puccinia recondita f. sp. tritici/Wheat/Leaf Disc Preventative (Brown Rust). The following applies: foliar, 200 ppm in the formulation, wheat leaf segments cv. Kanzler, inoculated 1 day after application, assessed 7-9 days after application, compared to untreated, read-out: disease control. The data set is classed as in vivo. The procedure:
Puccinia recondita f. sp. tritici/Wheat/Leaf Disc Preventative (Brown Rust) Wheat leaf segments cv. Kanzler are placed on agar in multiwell plates (24-well format) and sprayed with the formulated test compound diluted in water. The leaf disks are inoculated with a spore suspension of the fungus 1 day after application. The inoculated leaf segments are incubated at 19° C. and 75% rh under a light regime of 12 h light/12 h darkness in a climate cabinet and the activity of a compound is assessed as percent disease control compared to untreated when an appropriate level of disease damage appears in untreated check leaf segments (7-9 days after application).

In data set [5] the test system is Phaeosphaeria nodorum (Septoria nodorum). The experiment in a line: Phaeosphaeria nodorum (Septoria nodorum)/Wheat/Leaf Disc Preventative (Glume Blotch). The data set is classed as in vivo. The settings on record: Parastagonospora nodorum, foliar; 200 ppm in the formulation; wheat leaf segments cv. Kanzler, inoculated 2 days after application, assessed 5-7 days after application; compared to untreated; read-out: disease control. The procedure: Phaeosphaeria nodorum (Septoria nodorum)/Wheat/Leaf Disc Preventative (Glume Blotch) Wheat leaf segments cv. Kanzler are placed on agar in a multiwell plate (24-well format) and sprayed with the formulated test compound diluted in water. The leaf disks are inoculated with a spore suspension of the fungus 2 days after application. The inoculated test leaf disks are incubated at 20° C. and 75% rh under a light regime of 12 h light/12 h darkness in a climate cabinet and the activity of a compound is assessed as percent disease control compared to untreated when an appropriate level of disease damage appears in untreated check leaf disks (5-7 days after application).

The subject of data set [6] is Monographella nivalis (Microdochium nivale). The experiment in a line: Monographella nivalis (Microdochium nivale)/Liquid Culture (Foot Rot Cereals). The data set is classed as cell-based. The following applies: 200 ppm in the formulation, liquid culture, growth inhibition photometrically 4-5 days after application, compared to untreated control, read-out: disease control. The procedure:
Monographella nivalis (Microdochium nivale)/Liquid Culture (Foot Rot Cereals) Conidia of the fungus from cryogenic storage are directly mixed into nutrient broth (PDB potato dextrose broth). After placing a (DMSO) solution of test compound into a microtiter plate (96-well format), the nutrient broth containing the fungal spores is added. The test plates are incubated at 24° C. and the inhibition of growth is determined photometrically 4-5 days after application.

Data set [7] relates to Mycosphaerella arachidis (Cercospora arachidicola). The experiment in a line: Mycosphaerella arachidis (Cercospora arachidicola)/Liquid Culture (Early Leaf Spot). The data set is classed as cell-based. The settings on record: 200 ppm in the formulation, liquid culture, growth inhibition photometrically 4-5 days after application, compared to untreated control, read-out: disease control. How it is done:
Mycosphaerella arachidis (Cercospora arachidicola)/Liquid Culture (Early Leaf Spot) Conidia of the fungus from cryogenic storage are directly mixed into nutrient broth (PDB potato dextrose broth). After placing a (DMSO) solution of test compound into a microtiter plate (96-well format), the nutrient broth containing the fungal spores is added. The test plates are incubated at 24° C. and the inhibition of growth is determined photometrically 4-5 days after application.

Data on 8 molecules can be found in patent publication US11629129B2, “Microbiocidal picolinamide derivatives” (SYNGENTA PARTICIPATIONS AG, priority 2018, dated 2023).

In the case of `COc1ccnc(C(=O)N[C@@H](C)C(=O)O[C@@H](C)c2cccc(Oc3ccccc3)c2)c1O` [I.aq.001, [(1S)-1-(3-phenoxyphenyl)ethyl] (2S)-2-[(3-hydroxy-4-methoxy-pyridine-2-carbonyl)amino] propanoate], the inhibition of growth at 200 ppm in data set [1], in data set [2] and in data set [3] was no less than 80% each time. The pest or weed control at 200 ppm in data set [4] and in data set [5] was no less than 80% throughout.

For `COc1ccnc(C(=O)N[C@@H](C)C(=O)O[C@@H](C)c2ccc(-c3ccccc3C)cc2)c1O` [I.h.001, [(1S)-1-[4-(o-tolyl)phenyl]ethyl] (2S)-2-[(3-hydroxy-4-methoxy-pyridine-2-carbonyl)amino] propanoate], the inhibition of growth at 200 ppm in data set [1], in data set [6], in data set [2], in data set [7] and in data set [3] was no less than 80% throughout. Also, the pest or weed control at 200 ppm in data set [4] and in data set [5] was no less than 80% throughout.

As for `COc1ccnc(C(=O)N[C@@H](C)C(=O)O[C@@H](C)c2ccc(-c3ccccc3COC(C)(C)C)cc2)c1O` [I.k.001, [(1S)-1-[4-[2-(tert-butoxymethyl)phenyl]phenyl]ethyl] (2S)-2-[(3-hydroxy-4-methoxy-pyridine-2-carbonyl)amino] propanoate], the inhibition of growth at 200 ppm in data set [1], in data set [2], in data set [7] and in data set [3] was no less than 80% in each case. Moreover, the pest or weed control at 200 ppm in data set [4] and in data set [5] was no less than 80% in each case.

As for `COc1ccnc(C(=O)N[C@@H](C)C(=O)O[C@@H](C)c2ccc(-c3ccc(Br)cc3)cc2)c1O` [I.v.001, [(1S)-1-[4-(4-bromophenyl)phenyl]ethyl] (2S)-2-[(3-hydroxy-4-methoxy-pyridine-2-carbonyl)amino] propanoate], the inhibition of growth at 200 ppm in data set [1], in data set [6], in data set [2], in data set [7] and in data set [3] was no less than 80% each time. Further, the pest or weed control at 200 ppm in data set [4] and in data set [5] was no less than 80% each time.

Regarding `COc1ccnc(C(=O)N[C@@H](C)C(=O)O[C@@H](C)c2ccc(-c3cccc(C)c3C)cc2)c1O` [I.m.001, [(1S)-1-[4-(2,3-dimethylphenyl)phenyl]ethyl] (2S)-2-[(3-hydroxy-4-methoxy-pyridine-2-carbonyl)amino] propanoate], the inhibition of growth at 200 ppm in data set [1], in data set [6], in data set [2], in data set [7] and in data set [3] was no less than 80% in each case. The pest or weed control at 200 ppm in data set [4] and in data set [5] was no less than 80% in each case.

By melting point is commonly meant the temperature, or range, at which the solid turns liquid. `COc1ccnc(C(=O)N[C@@H](C)C(=O)O[C@@H](C)c2ccc(-c3ccc(Cl)cn3)cc2)c1O` [I.aa.001, [(1S)-1-[4-(5-chloro-2-pyridyl)phenyl]ethyl] (2S)-2-[(3-hydroxy-4-methoxy-pyridine-2-carbonyl)amino] propanoate] displayed a melting point of 144 to 145 °C. In addition, the inhibition of growth at 200 ppm in data set [6] is no less than 80%. For the same molecule, the inhibition of growth at 200 ppm in data set [2] was no less than 80%. In addition, in data set [7], the inhibition of growth at 200 ppm was no less than 80%. In addition, the inhibition of growth at 200 ppm in data set [3] was no less than 80%. Moreover, the pest or weed control at 200 ppm in data set [4] is no less than 80%.

`COc1ccnc(C(=O)N[C@@H](C)C(=O)O[C@@H](C)c2ccc(Oc3ccc(C(F)(F)F)cc3)cc2)c1O` [I.ay.001, [(1S)-1-[4-[4-(trifluoromethyl)phenoxy]phenyl]ethyl] (2S)-2-[(3-hydroxy-4-methoxy-pyridine-2-carbonyl)amino] propanoate]: the inhibition of growth at 200 ppm in data set [6], in data set [2], in data set [7] and in data set [3] was no less than 80% each time. The pest or weed control at 200 ppm in data set [4] and in data set [5] was no less than 80% each time.

`COc1ccnc(C(=O)N[C@@H](C)C(=O)O[C@@H](C)c2ccc(-c3ccc(Cl)cc3C)cc2)c1O` [I.n.001, [(1S)-1-[4-(4-chloro-2-methyl-phenyl)phenyl]ethyl] (2S)-2-[(3-hydroxy-4-methoxy-pyridine-2-carbonyl)amino] propanoate]: the inhibition of growth at 200 ppm in data set [1], in data set [6], in data set [2], in data set [7] and in data set [3] was no less than 80% in each case. The pest or weed control at 200 ppm in data set [4] and in data set [5] was no less than 80% each time.
